Laboratory results as given in patent US20230116760A1, “STRUCTURALLY-STABILIZED ONCOLYTIC PEPTIDES AND USES THEREOF” (Dana-Farber Cancer Institute, Inc., priority 2019, published 2023).
Bridge positions count the residues as written; N and C are the ends. Square brackets hold non-standard residues; d marks the D form. Peptide text beside a SMILES is read from it. S5 = C=CCCC[C@](C)(N)C(=O)O; Nle = CCCC[C@H](N)C(=O)O

How the values were obtained:
[1] = tested on: U937 cells; assay: LDH release assay of U937 cells; assay type: cell-based; conditions: 10 and 25 μg/mL, 90 minutes, FIG. 6, FIG. 7
Procedure: (§1) LDH release assay: To assess the release of lactate dehydrogenase (LDH) upon treatment with a structurally-stabilized peptide described herein, an LDH release assay can be used. Cultured cells, including, e.g., cancer cells and HUVEC cells, are plated in 96-well format (2×10^4 cells per well; including overnight incubation for adherent cells) and then treated with serial dilutions of structurally-stabilized peptides in a final volume in a final volume of 100 μL and incubated at 37° C. for the indicated time period (e.g., 90 minutes). The plates are spun down at 1500 rpm for 5 minutes at 4° C., and 80 μL of cell culture media is transferred to a clear plate (Corning), incubated with 80 μL of LDH reagent (Roche) for 15 minutes while shaking, and absorbance is measured at 490 nm on a microplate reader (SpectraMax M5 Microplate Reader, Molecular Devices). LDH release assays, as tailored to specific cancer cell types (OCI-AML3 cells and primary human pediatric B-ALL cells), are exemplified below.
(§2) LDH release assay: Cultured cells, including cancer cells and HUVEC cells, were plated in 96-well format (2×10^4 cells per well; including overnight incubation for adherent cells) and then treated with serial dilutions of Mag(i+4) peptides in a final volume in a final volume of […] and incubated at 37° C. for the indicated time period. The plates were spun down at 1500 rpm for 5 min at 4° C., and 80 μL of cell culture media was transferred to a clear plate (Corning), incubated with 80 μL of LDH reagent (Roche) for 15 min while shaking, and absorbance measured at 490 nm on a microplate reader (SpectraMax M5 Microplate Reader, Molecular Devices). LDH release assays, as tailored to specific cancer cell types, are exemplified below.

[2] = tested on: B. cereus; assay: killing of B. cereus; assay type: cell-based; conditions: vs Mag(i+4)15
[3] = tested on: S. aureus; assay: killing of S. aureus; assay type: cell-based; conditions: vs Mag(i+4)15
[4] = tested on: OCI-AML3 cells; assay: LDH release assay of OCI-AML3 cells; assay type: cell-based, human; conditions: 10 and 25 μg/mL, 90 minutes, FIG. 6, FIG. 7
Procedure: as §1
LDH release assay of OCI-AML3 cells: OCI-AML3 cells are seeded in 96-well plates (2×10^4 cells per well) in RPMI medium containing 5% FBS and treated with structurally-stabilized peptides for 90 minutes. LDH release is quantified by incubating centrifuged (e.g., at 1500 rpm) cell culture medium 1:1 with LDH reagent (Roche), followed by absorbance measurement 490 nm on a microplate reader (Spectramax M5). Percent LDH release was normalized to 1% Triton.
as §2
LDH release assay of OCI-AML3 cells: OCI-AML3 cells were seeded in 96-well plates (2×10^4 cells per well) in RPMI medium containing 5% FBS and treated with peptides having the indicated amino acid sequences for 90 minutes. LDH release was quantified by incubating centrifuged cell culture medium 1:1 with LDH reagent (Roche), followed by absorbance measurement 490 nm on a microplate reader (Spectramax M5). Percent LDH release was normalized to 1% Triton. Data was pooled from 2 technical replicates.

[5] = tested on: red blood cells (RBCs); assay type: cell-based, human
Procedure: RBC hemolysis assay: To assess the hemolytic activity of a structurally-stabilized peptide described herein, a red blood cell (RBV) hemolysis assay can be used. Human blood samples are centrifuged to isolate RBCs, which are then washed and suspended in phosphate-buffered saline to yield a 1% (v/v) suspension. The suspension is added to serial dilutions of peptide stocks in water in clear round-bottom polypropylene 96-well plates and the plates incubated for 1 hour at 37° C. The plates are then centrifuged and the supernatant isolated to determine the amount of hemoglobin released using a spectrophotometer (570 nm). Percent hemolysis is calculated as: ([Treated Absorbance−Untreated Control Absorbance]×100)/(1% Triton X-100 Treated Absorbance−Untreated Control Absorbance).
Stapled oncolytic peptide synthesis: Fmoc-based solid-phase peptide synthesis was used to synthesize stapled antimicrobial peptides in accordance with previously reported methods for generating all-hydrocarbon stapled peptides. To achieve the various staple lengths, α-methyl, α-alkenyl amino acids were installed at i, i+4 positions using two S-pentenyl alanine residues (S5). For the stapling reaction, Grubbs 1st generation ruthenium catalyst dissolved in dichloroethane was added to the resin-bound peptides. To ensure maximal conversion, three to five rounds of stapling were performed. The peptides were then cleaved off of the resin using trifluoroacetic acid, precipitated using a hexane:ether (1:1) mixture, air dried, and purified by LC-MS. All peptides were quantified by amino acid analysis. RBC hemolysis assay: Human blood samples were centrifuged to isolate red blood cells (RBCs), which were then washed and suspended in phosphate-buffered saline to yield a 1% (v/v) suspension. The suspension was added to serial dilutions of peptide stocks in water in clear round-bottom polypropylene 96-well plates and the plates incubated for 1 hour at 37° C. The plates were then centrifuged and the supernatant isolated to determine the amount of hemoglobin released using a spectrophotometer (570 nm). Percent hemolysis was calculated as: ([Treated Absorbance−Untreated Control Absorbance]×100)/(1% Triton X-100 Treated Absorbance−Untreated Control Absorbance).

[6] = tested on: leukemia cells (e.g. U937, OCI-AML3 and MV4;11 cells); assay type: cell-based; conditions: 24 h
Procedure: as §1
LDH release assay: Cultured cells, including cancer cells and HUVEC cells, were plated in 96-well format (2×10^4 cells per well; including overnight incubation for adherent cells) and then treated with serial dilutions of Mag(i+4) peptides in a final volume in a final volume of […] and incubated at 37° C. for the indicated time period. […]

[7] = mice; Mourtada et al., Nature Biotech, 2019; cited from earlier work

Compound	cancer cell lysis by LDH release, compared with parent Mag(i+4)15 [1]	killing of B. cereus compared to the parent compound [2]	killing of S. aureus compared to the parent compound [3]	cancer cell lysis by LDH release, compared with parent Mag(i+4)15 [4]	RBC lysis [5]	further results
KIGKFLHSAKKFGKAX1VGEX2BNS [Mag(i+4)15 (G1K)]	retain substantial, if not all, oncolytic activity	substantially impaired	substantially impaired	retain substantial, if not all, oncolytic activity	–	–
GKGKFLHSAKKFGKAX1VGEX2BNS [Mag(i+4)15 (I2K)]	retain substantial, if not all, oncolytic activity	substantially impaired	substantially impaired	retain substantial, if not all, oncolytic activity	–	–
CCCC[C@@H]1NC(=O)[C@H]([C@@H](C)CC)NC(=O)[C@@](C)(NC(=O)CNC(=O)[C@@H](NC(=O)[C@H](Cc2ccccc2)NC(=O)[C@H](C)NC(=O)[C@H](CCCCN)NC(=O)CNC(=O)[C@H](Cc2ccccc2)NC(=O)[C@H](CCCCN)NC(=O)[C@H](CCCCN)NC(=O)[C@H](C)NC(=O)[C@H](CO)NC(=O)[C@H](Cc2c[nH]cn2)NC(=O)[C@H](CC(C)C)NC(=O)[C@H](Cc2ccccc2)NC(=O)[C@H](CCCCN)NC(=O)CNC(=O)[C@@H](NC(=O)CN)[C@@H](C)CC)C(C)C)CCCC=CCCC[C@@](C)(C(N)=O)NC(=O)[C@H](CC(N)=O)NC1=O [Mag(i+4)18, GIGKFLHSAKKFGKAFVGX1IBNX2] (H-GIGKFLHSAKKFGKAFVG[S5]I[Nle]N[S5]-NH2; staple 19-23)	–	–	–	–	lytic to all three cell types	–
CCCC[C@H](NC(=O)[C@@H](NC(=O)[C@H](CCC(=O)O)NC(=O)CNC(=O)[C@@H](NC(=O)[C@H](Cc1ccccc1)NC(=O)[C@H](C)NC(=O)[C@H](CCCCN)NC(=O)CNC(=O)[C@H](Cc1ccccc1)NC(=O)[C@H](CCCCN)NC(=O)[C@H](CCCCN)NC(=O)[C@H](C)NC(=O)[C@H](CO)NC(=O)[C@]1(C)CCCC=CCCC[C@](C)(NC(=O)[C@@H](NC(=O)CN)[C@@H](C)CC)C(=O)N[C@@H](CCCCN)C(=O)N[C@@H](Cc2ccccc2)C(=O)N[C@@H](CC(C)C)C(=O)N1)C(C)C)[C@@H](C)CC)C(=O)N[C@@H](CC(N)=O)C(=O)N[C@@H](CO)C(N)=O [Mag(i+4)2, GIX1KFLX2SAKKFGKAFVGEIBNS] (H-GI[S5]KFL[S5]SAKKFGKAFVGEI[Nle]NS-NH2; staple 3-7)	–	–	–	–	little to no effect on RBCs	–
CCCC[C@H](NC(=O)[C@@H](NC(=O)[C@H](CCC(=O)O)NC(=O)CNC(=O)[C@@H](NC(=O)[C@H](Cc1ccccc1)NC(=O)[C@H](C)NC(=O)[C@H](CCCCN)NC(=O)CNC(=O)[C@H](Cc1ccccc1)NC(=O)[C@]1(C)CCCC=CCCC[C@](C)(NC(=O)[C@H](CC(C)C)NC(=O)[C@H](Cc2ccccc2)NC(=O)[C@H](CCCCN)NC(=O)CNC(=O)[C@@H](NC(=O)CN)[C@@H](C)CC)C(=O)N[C@@H](CO)C(=O)N[C@@H](C)C(=O)N[C@@H](CCCCN)C(=O)N1)C(C)C)[C@@H](C)CC)C(=O)N[C@@H](CC(N)=O)C(=O)N[C@@H](CO)C(N)=O [Mag(i+4)6, GIGKFLX1SAKX2FGKAFVGEIBNS] (H-GIGKFL[S5]SAK[S5]FGKAFVGEI[Nle]NS-NH2; staple 7-11)	–	–	–	–	no effect on any cell type	–
CC(C)[C@@H]1NC(=O)[C@@](C)(NC(=O)[C@H](C)NC(=O)[C@H](CCCCN)NC(=O)CNC(=O)[C@H](Cc2ccccc2)NC(=O)[C@H](CCCCN)NC(=O)[C@H](CCCCN)NC(=O)[C@H](CCCCN)NC(=O)[C@H](CO)NC(=O)[C@H](Cc2c[nH]cn2)NC(=O)[C@]2(C)CCCC=CCCC[C@](C)(NC(=O)CN)C(=O)NCC(=O)N[C@@H](CCCCN)C(=O)N[C@@H](Cc3ccccc3)C(=O)N2)CCCC=CCCC[C@@](C)(C(=O)N[C@@H](C)C(=O)N[C@@H](CCCCN)C(=O)N[C@@H](CCCCN)C(N)=O)NC(=O)[C@H](CCC(=O)O)NC(=O)CNC1=O [Mag(i+4)1,15 (A9K, B21A, N22K, S23K), GX1GKFX2HSKKKFGKAX3VGEX4AKK] (H-G[S5]GKF[S5]HSKKKFGKA[S5]VGE[S5]AKK-NH2; staple 2-6, 16-20)	–	–	–	–	–	EC50 of leukemia cell lysis (LDH release) [6]: 11.5 to 28.2 µg/mL; toxicity (gross toxicity, red cell hemolysis, kidney epithelium) [7]: without gross toxicity, red cell hemolysis or damage to kidney epithelium
